According to patent US11447486B2, “2-amino-benzimidazole derivatives and their use as 5-lipoxygenase and/or prostaglandin E synthase inhibitors” (INSTITUT PASTEUR KOREA, priority 2014, dated 2022):

Experiments:
[1] = system: Rat basophilic leukemia (RBL) cells; assay: LTB4 secretion assay in RBL (rat basophilic leukemia cells); assay type: cell-based; conditions: Rattus norvegicus, RBL
Outline: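 Cells seeded 2×10^4/well the day before, then pre-incubated 15 min at 37 °C in EMEM/0.5% FBS with compound (5 nM to 100 uM). Stimulation with 2.5 uM arachidonic acid plus 5 uM A23187 (final) for 10 min at 37 °C; LTB4 in supernatant quantified by EIA.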

human 5-LOX = biological target: T1, human 5-LOX (Homo sapiens, UniProt P09917); assay: 5-LOX enzyme activity, fluorescence method (5-HPETE, H2DCFDA); assay type: biochemical; conditions: read-out: 5-LO (IC50)
T1 construct: purchased Cayman 60402; host or cells: insect cells (lysate)
T1 sequence (P09917 1-674): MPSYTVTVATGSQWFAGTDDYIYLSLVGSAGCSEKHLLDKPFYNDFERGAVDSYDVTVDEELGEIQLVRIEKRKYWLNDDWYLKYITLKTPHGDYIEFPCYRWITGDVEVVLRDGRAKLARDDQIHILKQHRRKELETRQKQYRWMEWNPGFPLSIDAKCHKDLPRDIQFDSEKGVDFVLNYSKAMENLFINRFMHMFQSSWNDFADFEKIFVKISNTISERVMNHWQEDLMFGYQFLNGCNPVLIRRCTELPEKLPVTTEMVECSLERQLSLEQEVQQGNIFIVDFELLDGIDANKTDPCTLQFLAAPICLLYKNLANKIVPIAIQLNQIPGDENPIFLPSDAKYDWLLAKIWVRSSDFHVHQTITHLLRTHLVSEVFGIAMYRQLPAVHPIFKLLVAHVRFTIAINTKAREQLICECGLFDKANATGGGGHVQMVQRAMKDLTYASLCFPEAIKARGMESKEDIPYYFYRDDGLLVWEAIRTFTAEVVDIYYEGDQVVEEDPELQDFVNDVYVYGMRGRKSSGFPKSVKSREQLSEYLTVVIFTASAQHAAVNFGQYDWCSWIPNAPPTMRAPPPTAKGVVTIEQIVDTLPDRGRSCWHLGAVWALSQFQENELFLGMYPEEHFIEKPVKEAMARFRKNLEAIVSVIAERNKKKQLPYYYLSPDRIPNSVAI
Outline: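 Compound (0.5 nM to 10 uM) pre-incubated 5 min with enzyme; reaction started with ATP (100 uM final) and arachidonic acid (3 uM final). All steps at room temperature, fluorescence read-out.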

Rat whole blood (RWB) = assay: LTB4 secretion assay in RWB (rat whole blood); assay type: cell-based; conditions: Rattus norvegicus
Outline: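 Heparinized blood from male Sprague Dawley rats (6-9 weeks) diluted 1:1 in RPMI, pre-incubated 15 min at 37 °C with compound (2.5 nM to 50 uM). Stimulated with 10 uM calcium ionophore A23187 for 10 min at 37 °C, stopped with ice-cold PBS; LTB4 in supernatant quantified by EIA.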

HeLa S3 cells = assay: PGE2 inhibition assay (HTRF) in TNF-α stimulated HeLa S3 cells; assay type: cell-based; conditions: Homo sapiens; PGE2, 10 uM compound, HeLa S3 stimulated with TNF-α
Experimental: Human epitheloid cervix carcinoma HeLa S3 cells (2×10^6cells/ml) were seeded with modified F-12K buffer medium pH 7.4 in tissue culture plate and incubated for overnight at 37° C. and 5% CO2. Then medium was changed into new medium contained 10 uM testing compounds or 0.1% DMSO and incubated overnight. After incubation, cells were stimulated with 30 nM TNF-α (Tumor necrosis factor-α) for 16 h. For determination of PGE2, the supernatant was measured by PGE2 HTRF (Homogeneous Time Resolved Fluorescence) assay kit Inhibition of PGE2 by compounds is calculated as a percentage of activity in the presence of drug versus the activity in the stimulator TNF-α.

[2] = biological target: T2, Human recombinant cyclooxygenase-2 (Homo sapiens, UniProt P35354); assay: COX-2 inhibition assay (EIA); assay type: biochemical; conditions: for inhibition at 10 µM: COX-2, 10 uM compound; for inhibitory effect on cyclooxygenase-2 (COX-2): tested at 10 uM
T2 construct: host or cells: insect Sf21 cells
T2 sequence (P35354 18-604): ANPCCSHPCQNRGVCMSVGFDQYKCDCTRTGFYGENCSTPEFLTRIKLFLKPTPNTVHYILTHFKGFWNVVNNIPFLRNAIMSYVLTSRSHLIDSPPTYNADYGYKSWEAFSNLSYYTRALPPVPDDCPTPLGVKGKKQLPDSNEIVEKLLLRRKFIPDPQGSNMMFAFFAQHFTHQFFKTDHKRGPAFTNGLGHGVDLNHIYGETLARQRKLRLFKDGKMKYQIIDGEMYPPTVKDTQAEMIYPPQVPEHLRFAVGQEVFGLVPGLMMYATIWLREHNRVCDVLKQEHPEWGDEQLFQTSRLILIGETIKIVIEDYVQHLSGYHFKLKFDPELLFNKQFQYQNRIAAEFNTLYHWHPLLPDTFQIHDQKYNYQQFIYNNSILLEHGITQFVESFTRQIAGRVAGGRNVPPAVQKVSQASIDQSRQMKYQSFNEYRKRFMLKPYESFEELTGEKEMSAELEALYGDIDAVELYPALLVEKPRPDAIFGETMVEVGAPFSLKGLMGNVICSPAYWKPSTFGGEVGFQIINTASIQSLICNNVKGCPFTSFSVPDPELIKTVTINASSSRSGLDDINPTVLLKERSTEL
Experimental: Human recombinant cyclooxygenase-2 expressed in insect Sf21 cells was used. The testing compounds and reference compound (Rofecoxib) were dissolved in DMSO (Sigma, USA) and tested at 10 uM. Test samples were pre-incubated with 0.11 U enzyme in 100 mM modified Tris-HCl buffer pH 7.7 for 15 minutes at 37° C. The reactions were initiated by addition of 0.3 μM arachidonic acid for another 5-minute incubation period, then terminated by further addition of 1 N HCl. An aliquot was then combined with the EIA kit for spectrophotometric determination of the quantity of PGE2 formed. Inhibition % was determined by compared with relative amounts of PGE2 induced by arachidonic acid.

EC50 [1] [µM] | melting point [°C] | IC50 (human 5-LOX) [µM] | EC50 (Rat whole blood (RWB)) [µM] | inhibition at 10 µM [2] [%] | inhibitory effect on cyclooxygenase-2 (COX-2) [2] | Compound | inhibition at 10 µM (HeLa S3 cells) [%]
< 10 | 60.8 to 61.6 | 1 to 10 | > 20 | – | – | CN(C)c1nc2cc(N)ccc2n1CCOc1ccc(OC(F)(F)F)cc1 [Compound 43] | –
< 10 | > 133 | < 1 | > 20 | – | – | CN(C)c1nc2ccc(N)cc2n1CCOc1ccc(OC(F)(F)F)cc1 [Compound 44] | 40 to 70
< 10 | > 107.8 | < 1 | 10 to 20 | – | – | Nc1ccc2[nH]c(NCc3cccc4ccccc34)nc2c1 [Compound 91] | > 70
< 10 | 116.8 to 118.7 | < 1 | < 10 | – | – | CN(C)c1ccc2[nH]c(NCc3ccc(Oc4ccccc4)cc3)nc2c1 [Compound 98] | –
< 10 | – | < 1 | < 10 | – | – | Nc1ccc2[nH]c(NCc3cccc(Oc4ccccc4)c3)nc2c1 [Compound 103] | > 70
< 10 | 156.4 to 158.5 | < 1 | < 10 | – | – | Nc1ccc2nc(N)n(Cc3ccc(Oc4ccc(Cl)cc4)cc3)c2c1 [Compound 111] | –
< 10 | > 130.8 | < 1 | 10 to 20 | – | – | CC(C)(C)c1ccc(CNc2nc3ccc(N)cc3[nH]2)cc1 [Compound 116] | –
< 10 | > 113.2 | < 1 | > 20 | – | – | CC(C)(Nc1ccc2[nH]c(NCc3ccc(Oc4ccc(Cl)cc4)cc3)nc2c1)C(N)=O [Compound 118] | –
< 10 | 200.7 to 201.3 | < 1 | < 10 | – | – | Nc1ccc2nc(NC3CCCC3)n(CCOc3ccc(OC(F)(F)F)cc3)c2c1 [Compound 120] | –
< 10 | > 59.7 | < 1 | > 20 | – | – | CC(C)(C)Oc1ccc(CNc2nc3ccc(N)cc3[nH]2)cc1 [Compound 121] | –
< 10 | > 160.8 | < 1 | < 10 | – | – | Nc1ccc2[nH]c(NCc3ccc(Oc4cccc(Cl)c4)cc3)nc2c1 [Compound 122] | –
< 10 | 102.3 to 107.3 | < 1 | – | – | – | Cn1c(NCc2ccc(Oc3ccc4c(Cl)cccc4n3)cc2)nc2ccc(NC3COC3)cc21 [Compound 425] | –

The next lines start with the molecule.

Compound | EC50 [1] [µM] | melting point [°C] | IC50 (human 5-LOX) [µM] | EC50 (Rat whole blood (RWB)) [µM] | inhibition at 10 µM [2] [%] | inhibitory effect on cyclooxygenase-2 (COX-2) [2] | inhibition at 10 µM (HeLa S3 cells) [%]
Cn1c(NCCOc2ccc(OC(F)(F)F)cc2)nc2cc(N)ccc21 [Compound 53] | < 10 | – | < 1 | < 10 | – | – | > 70
Nc1ccc2[nH]c(N3CCC(Oc4ccc(OC(F)(F)F)cc4)C3)nc2c1 (centres unmarked) [Compound 54] | < 10 | – | < 1 | < 10 | – | – | > 70
Nc1ccc2[nH]c(NCc3ccc(Oc4ccc(Cl)cc4)cc3)nc2c1 [Compound 86] | < 10 | – | < 1 | < 10 | – | – | > 70
Nc1ccc2[nH]c(NCc3ccc(-c4ccccc4)cc3)nc2c1 [Compound 90] | < 10 | > 200 | < 1 | 10 to 20 | < 1 | do not have an inhibitory effect | > 70
CC(C)Nc1ccc2[nH]c(NCc3ccc(Oc4ccccc4)cc3)nc2c1 [Compound 95] | < 10 | > 137.5 | < 1 | – | < 1 | do not have an inhibitory effect | > 70
FC(F)(F)Oc1ccc(OC2CCN(c3ccc4nc(N5CCCC5)[nH]c4c3)C2)cc1 (centres unmarked) [Compound 99] | < 10 | – | < 1 | > 20 | – | – | > 70
Nc1ccc2[nH]c(NCc3ccc(Oc4ccc(F)c(Cl)c4)cc3)nc2c1 [Compound 102] | < 10 | 58.4 to 66.6 | < 1 | < 10 | – | – | –
CC(Cc1ccc(Cl)cc1Cl)Nc1nc2cc(N)ccc2[nH]1 (centres unmarked) [Compound 107] | < 10 | > 200.9 | < 1 | > 20 | – | – | –
CC(C)(Nc1ccc2[nH]c(NCc3ccc(Oc4ccccc4)cc3)nc2c1)C(N)=O [Compound 109] | < 10 | > 173 | < 1 | < 10 | – | – | –
Nc1ccc2[nH]c(NCc3ccc(N4CCN(c5ccc(OC(F)(F)F)cc5)CC4)cc3)nc2c1 [Compound 114] | 10 to 20 | > 220 | < 1 | > 20 | – | – | –
c1ccc(Oc2ccc(CNc3nc4cc(NC5CCOC5)ccc4[nH]3)cc2)cc1 (centres unmarked) [Compound 119] | < 10 | > 54.3 | < 1 | < 10 | – | – | –
Nc1cc2nc(NCc3ccc(Oc4ccc(Cl)cc4)cc3)[nH]c2cc1Cl [Compound 147] | < 10 | 191.4 to 193.5 | < 1 | < 10 | – | – | –
Nc1ccc2nc(N)n(Cc3ccc(Oc4ccc(Cl)cn4)cc3)c2c1 [Compound 195] | < 10 | – | < 1 | < 10 | – | – | < 40
Cn1c(NCc2ccc(Oc3ccc(C(F)(F)F)nc3)cc2)nc2ccc(NC3COC3)cc21 [Compound 226] | < 10 | – | < 1 | < 10 | – | – | > 70
Cn1c(NCc2ccc(OCc3ccc(Cl)cn3)cc2)nc2ccc(N)cc21 [Compound 314] | 10 to 20 | 96.6 to 100.9 | < 1 | – | – | – | –
Cn1c(NCc2ccc(Oc3nc4ccc(Cl)cc4n3C)cc2)nc2ccc(NC3COC3)cc21 [Compound 423] | < 10 | 138.9 to 140.8 | < 1 | – | – | – | –
